Literature values, collected in US20230210769A1, “METHODS OF TREATMENT USING NICLOSAMIDE” (priority 2020, published 2023).

Columns and labels:
[1] = tested on: SARS-CoV-2 (a.k.a. 2019-nCoV)
[2] = tested on: SARS-CoV, influenza virus, MERS-CoV, ZIKV, JEV, HCV, EBOV, HRVs, CHIKV, HAdV, EBV

SMILES: O=C(Nc1ccc([N+](=O)[O-])cc1Cl)c1cc(Cl)ccc1O [niclosamide, 5-chloro-N-(2-chloro-4-nitrophenyl)-2-hydroxybenzamide]
- anti-viral effects against SARS-CoV-2 [1]: anti-viral effects
- anti-viral effects in vitro against various viral infections [2]: anti-viral effects in vitro
